How the values were obtained:
[1] = target: T1, hP2X7-2Nβ receptor (Homo sapiens, UniProt Q99572, I21V/M24R/N16P/N25R/Q22R/R20V/S23N/T19I/Y26L); experiment: two-electrode voltage clamp, Xenopus oocytes; format: cell-based; conditions: P2X7-2Nβ
T1 construct: expressed in transfected cells; host or cells: Xenopus laevis oocytes (cRNA injected)
T1 sequence (Q99572 1-595 N16P/T19I/R20V/I21V/Q22R/S23N/M24R/N25R/Y26L): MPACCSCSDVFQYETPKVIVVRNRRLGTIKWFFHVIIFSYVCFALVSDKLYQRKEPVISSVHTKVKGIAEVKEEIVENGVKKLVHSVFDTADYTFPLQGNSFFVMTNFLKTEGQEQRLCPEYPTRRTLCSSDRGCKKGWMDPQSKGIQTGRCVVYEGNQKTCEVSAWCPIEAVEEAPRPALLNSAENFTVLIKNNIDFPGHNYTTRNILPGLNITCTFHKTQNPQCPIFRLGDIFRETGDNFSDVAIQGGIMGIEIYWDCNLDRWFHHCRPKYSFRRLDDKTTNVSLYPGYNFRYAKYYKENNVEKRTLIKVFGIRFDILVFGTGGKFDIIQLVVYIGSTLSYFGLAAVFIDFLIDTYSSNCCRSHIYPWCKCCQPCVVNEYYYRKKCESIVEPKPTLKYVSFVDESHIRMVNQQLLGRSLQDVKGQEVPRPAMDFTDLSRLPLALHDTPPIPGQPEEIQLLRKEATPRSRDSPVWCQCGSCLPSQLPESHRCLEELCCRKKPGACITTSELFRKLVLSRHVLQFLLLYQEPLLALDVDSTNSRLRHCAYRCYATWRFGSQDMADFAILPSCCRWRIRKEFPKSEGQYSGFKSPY
Method: (§1) P2XR constructs were transcribed to produce sense-strand cRNA (mMessage mMachine, Ambion, Austin, TX). Manually defoliculated stage V Xenopus laevis oocytes were injected with 50 nl (50 ng) of cRNA using an Inject + Matic microinjector (J.A. Gaby, InjectMatic, Geneva, Switzerland) and stored at 16 °C in ND96 buffer (in mM, NaCl 96, KCl 2, CaCl2 1.8, MgCl2 1, sodium pyruvate 5, HEPES 5 (pH 7.6) supplemented with 50 µg/ml gentamycin and 50 µg/ml tetracycline). For electrophysiological recordings (3–7 days post-injection) oocytes were bathed in divalent free ND96 buffer (in mM, NaCl 96, KCl 2, sodium pyruvate 5, HEPES 5 and 0.1 flufenamic acid, pH 7.6).
(§2) ATP (sodium salt, Sigma) was applied via a U-tube perfusion system for 3 s at 3–5 minute intervals to allow reproducible responses to be recorded. […] To standardize for any change in ATP sensitivity at mutant receptors antagonists were co-applied with an EC90 concentration of ATP.
(§3) Concentration response curves were normalized to the maximal response and fitted with the Hill equation (variable slope) with GraphPad Prism 6 (Graphpad software, San Diego, CA). […] Individual concentration response curves were generated for individual experiments and statistical analysis was carried out on the data generated. In the figures the inhibition curves are fitted to the mean normalized data. Any significant differences were calculated by one-way analysis of variance, followed by Bonferroni’s test (using GraphPad Prism 6). Data are shown as mean ± SEM.

[2] = target: T2, P2X7 73–79 deletion mutant (hP2X7-2Nβ background) (Homo sapiens, UniProt Q99572, DEL73-79/I21V/M24R/N16P/N25R/Q22R/R20V/S23N/T19I/Y26L); experiment: two-electrode voltage clamp, Xenopus oocytes; format: cell-based
T2 construct: expressed in transfected cells; host or cells: Xenopus laevis oocytes (cRNA injected)
T2 sequence (Q99572 with tags, fused parts or gaps N16P/T19I/R20V/I21V/Q22R/S23N/M24R/N25R/Y26L/DEL73-79): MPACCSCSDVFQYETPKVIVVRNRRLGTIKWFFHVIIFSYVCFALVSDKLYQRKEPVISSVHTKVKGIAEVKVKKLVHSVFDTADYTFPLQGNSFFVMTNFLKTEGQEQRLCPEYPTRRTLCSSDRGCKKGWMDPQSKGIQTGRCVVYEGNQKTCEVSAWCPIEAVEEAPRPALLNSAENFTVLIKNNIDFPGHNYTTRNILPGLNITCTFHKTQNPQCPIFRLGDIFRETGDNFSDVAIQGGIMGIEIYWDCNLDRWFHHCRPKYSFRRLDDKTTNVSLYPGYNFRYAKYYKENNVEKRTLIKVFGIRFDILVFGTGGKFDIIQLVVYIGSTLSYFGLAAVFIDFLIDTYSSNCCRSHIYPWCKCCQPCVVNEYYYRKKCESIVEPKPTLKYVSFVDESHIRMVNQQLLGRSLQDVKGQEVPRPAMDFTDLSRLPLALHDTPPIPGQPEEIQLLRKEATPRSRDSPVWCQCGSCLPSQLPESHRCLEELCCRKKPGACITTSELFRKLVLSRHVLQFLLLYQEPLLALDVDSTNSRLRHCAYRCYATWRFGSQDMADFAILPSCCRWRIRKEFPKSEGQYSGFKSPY

[3] = target: T3, hP2X7-2Nβ/P2X1 chimera 279–285 (Homo sapiens, UniProt Q99572, DEL279-281/I21V/M24R/N16P/N25R/N284E/Q22R/R20V/S23N/T19I/T282Y/T283E/V285K/Y26L); experiment: two-electrode voltage clamp, Xenopus oocytes; format: cell-based; conditions: 279–285 chimera; relative to P2X7-2Nβ
T3 construct: expressed in transfected cells; host or cells: Xenopus laevis oocytes (cRNA injected)
T3 sequence (Q99572 with tags, fused parts or gaps N16P/T19I/R20V/I21V/Q22R/S23N/M24R/N25R/Y26L/DEL279-281/T282Y/T283E/N284E/V285K): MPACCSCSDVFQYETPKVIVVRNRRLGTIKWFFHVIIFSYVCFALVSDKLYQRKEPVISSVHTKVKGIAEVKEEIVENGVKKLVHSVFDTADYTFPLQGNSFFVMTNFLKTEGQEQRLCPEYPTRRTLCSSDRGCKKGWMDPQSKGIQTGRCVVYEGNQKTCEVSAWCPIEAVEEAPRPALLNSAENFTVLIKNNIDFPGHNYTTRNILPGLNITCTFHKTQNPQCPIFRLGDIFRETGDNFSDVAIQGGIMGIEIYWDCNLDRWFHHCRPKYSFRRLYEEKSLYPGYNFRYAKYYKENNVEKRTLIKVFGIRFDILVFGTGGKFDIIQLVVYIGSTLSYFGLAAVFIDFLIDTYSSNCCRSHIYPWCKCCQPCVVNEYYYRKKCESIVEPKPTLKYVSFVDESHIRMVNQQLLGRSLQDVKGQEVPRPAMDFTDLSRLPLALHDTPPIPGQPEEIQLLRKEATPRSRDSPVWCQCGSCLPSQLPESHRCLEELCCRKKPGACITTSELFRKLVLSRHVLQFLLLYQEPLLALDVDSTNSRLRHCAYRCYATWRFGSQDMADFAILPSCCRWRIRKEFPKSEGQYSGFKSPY
From the text: The hP2X1R was a gift from Dr Lin-Hua Jiang (University of Leeds, UK) and the hP2X1R cDNA has been described previously. Chimeras were generated by megaprimer-mediated domain swapping. In addition to chimeras, point mutations, deletions and insertions were made using the QuikChange (Stratagene) or Q5 (New England Bioscience) mutagenesis kits. The production of the correct mutations and absence of coding errors was verified by DNA sequencing (Automated ABI Sequencing Service, University of Leicester, UK).
as §1, §2, §3

[4] = system: other P2XR subtypes; conditions: cited from earlier work

Nc1ncnc2c1ncn2[C@@H]1O[C@H](COP(=O)(O)OP(=O)(O)OP(=O)(O)O)[C@@H](O)[C@H]1O [ATP]
Peak amplitude ([1]; maximal ATP): 2.69 ± 0.19 μA
increase in ATP sensitivity ([2]; 73–79 del, relative to P2X7-2Nβ): 2–3 fold
Peak amplitude ([2]; 73–79 delete, maximal ATP): 2.05 ± 0.23 μA
increase in ATP sensitivity [3]: ~ 10 fold

Cl.Cl.O=C(CC12CC3CC(CC(C3)C1)C2)Nc1cccc2nc(NCCNCCO)ccc12 [AZ10606120, N-[2-[[2-[(2-Hydroxyethyl)amino]ethyl]amino]-5-quinolinyl]-2-tricyclo[3.3.1.13,7]dec-1-ylacetamide dihydrochloride]
Hill slope of AZ10606120 inhibition ([1]; EC90 ATP): 1.7 ± 0.24
% Inhibition with 30 nm AZ10606120 ([1]; response to EC90 ATP): ~ 70%
effect at other P2XR subtypes [4]: little or no effect

From article PMC5429621 (Scientific Reports, 2017)
